Several values for one entry are separate records, joined by “and”; a condition that tells them apart may be missing. Identical values can stand only once. Like-named read-outs stand apart in the source and are kept apart here.
Columns and labels:
[1] = in human body, as shown in literatures; cited from earlier work
[2] = in mice, as shown in literatures; cited from earlier work
[3] = literature; cited from earlier work
LL/2 cells = test: Cellular uptake test (ratio of cell to medium); assay type: cell-based; conditions: 1, 2, 4 and 8 h
Method: (§1) 2×10^6 cells was inoculated in a 15 cm^2 dish containing 14 mL medium supplemented with 10% FBS. […] At specified time points (using I-131 tracer at 1, 2, 4 and 8_h), the cells on the dish was harvested by using a cell scraper. Then, a cell suspension was transferred to a 15 mL centrifuge tube and centrifuged (at 3500 rpm) for 2 min. After centrifugation, 100 μL centrifugate was collected to a preweighed counting tube and directly poured into a maintained medium. Cell pellets were frozen with dry ice, and further collected into another weighed counting tube. […] Accumulation of activity of radioactive trancer in cell in vitro is represented by a radio of cell to medium:
(§2) Uptake experimental results of the two radioactive nucleoside analogues [^131I]IUdR and [^131I]ICdR in cells are as shown in FIGS. 4((a), (b)).

NG4TL4 cells = test: Cellular uptake test (ratio of cell to medium); assay type: cell-based; conditions: 1, 2, 4 and 8 h
Method: as §1, §2

NG4TL4 sarcoma cells = test: Study on incorporation in DNA; assay type: cell-based; conditions: 1 μCi/mL medium, 0.5-8 h
Method: DNA was extracted with Genomic DNA Mini Kit (Geneaid Biotech Ltd., Taiwan). NG4TL4 cell lines were harvested and inoculated into a petri dish at 2×10^6. […] At 0.5, 1, 2, 4 and 8 h after incubation, the medium was removed, and the cells was washed two times with ice-cold PBS, and then sheared with trypsin and collected to a centrifuge tube for centrifugation (at […] for 1 min). The supernatant was removed, while 50 μL remaining buffer was left to keep the cells in suspension. 300 μL cell lysis buffer was added to the sample and uniformly mixed, the cells was cultured in a water bath at 60° C. for a sereral minutes till the solution was transparent (the sample was inversed once every 3 min). 2 μL RNAse (25 mg/mL) was added to the sample and uniformly mixed, after 5-min incubation at room temperature, 100 μL protein removal buffer was added to the sample, uniformly mixed immediately, and centrifuged for 3 min at full speed (14000 rpm) after 5-min incubation on ice. The resulting solution was transferred as a suspension to another tube, and isopropanol was added and thoroughly mixed. […] In the test, DNA purity was determined at absorption wavelengths of 260 nm and 280 nm, and the ratio of absorbances (OD260/OD280) was about 1.7.

[4] = Analysis of metabolites in blood and urine through NP-TLC; assay type: in vivo, FVB/N mice; conditions: NP-TLC CH2Cl2/MeOH = 15/1
Method: Blood samples were obtained by heart puncture, and then centrifuged at 13,000 rpm for 10 min. Then, the supernatant (about 300 μL) was placed in a 1.5 mL centrifuge tube containing equal amount of ethanol, and then centrifuged again to obtain the serum.

NG4TL4-WT tumor = test: Biodistribution study in tumor-bearing mice; assay type: in vivo, FVB/N mice; conditions: for Biodistribution Blood / Biodistribution Bone / Biodistribution Kidney / Biodistribution Large Intestine / Biodistribution Liver / Biodistribution Lung / Biodistribution Marrow / Biodistribution Pancreas / Biodistribution Stomach / Biodistribution Tumor / Biodistribution Heart / Biodistribution Spleen / Biodistribution Small Intestine / Biodistribution Muscle: 80~90 μCi tail vein, FVB/N mice with NG4TL4-WT tumor
Text: […] Tumor and 13 other tissures (blood, heart, lung, liver, stomach, small intestine, large intestine, spleen, pancreas, kidney, bone, marrow, and muscle) were removed, rinsed, weighed, and determined for radioactivity with a γ scintilation counter. Uptake of the radioactive trancers in the tissues (counts per min) was calibrated against decay, normalizedto sample weight, and expressed as percentages of injected dosage per gram of tissue (% ID/g) and aggregation ratio of tumor to blood.

[5] = healthy FVB/N mice, intravenous 200 μCi, blood radioactivity
[6] = 5 min after ^131I-IUdR at tail vein
[7] = 15 min after ^131I-IUdR at tail vein

For `O=c1[nH]c(=O)n([C@H]2C[C@H](O)[C@@H](CO)O2)cc1I` [IUdR], the “in vivo physiological half life” value [1] is given as 5 min and the “in vivo physiological half life” value [2] is given as 7 min.
In the case of `Cc1cn([C@@H]2O[C@H](CO)[C@@H](O)[C@@H]2[18F])c(=O)[nH]c1=O` [[^18F]FMAU, 2-[^18F]fluoro-5-methyl-1-β-D-arabinofuranosyluracil], the “stability in the organism” value [3] is given as “very stable”.
In the case of `O=c1[nH]c(=O)n([C@H]2C[C@H](O)[C@@H](CO)O2)cc1[131I]` [^131I-IUdR, 5-[^124/131I]iodo-2′-deoxyuridine, reference compound], the “uptake value over time” value (LL/2 cells) is reported as “continuously increased with time”, the “uptake value over time” value (NG4TL4 cells) is reported as “continuously increased with time” and the “incorporation into cells / radioactive accumulation in DNA with time” value (NG4TL4 sarcoma cells) is reported as “linearly incorporated”. For the same molecule, the “^131I-IU (%) in Blood” value [4, 6] was 3.65 ± 3.03%, the “^131I-IU (%) in Urine” value [4, 6] was 4.45 ± 3.03% and the “^131I-IUdR (%) in Blood” value [4, 6] was 25.23 ± 2.88%. For the same molecule, the “^131I-IUdR (%) in Urine” value [4, 6] was 8.60 ± 2.88%, the “^131I-I^- (%) in Blood” value [4, 6] was 71.1% and 71.12 ± 5.83% and the “^131I-I^- (%) in Urine” value [4, 6] was 88.0% and 86.96 ± 5.83%. The “^131I-IU (%) in Blood” value [4, 7] was 1.58 ± 0.72%, the “^131I-IU (%) in Urine” value [4, 7] was 2.76 ± 1.23% and the “^131I-IUdR (%) in Blood” value [4, 7] was 6.42 ± 3.89%. The “^131I-IUdR (%) in Urine” value [4, 7] was 5.23 ± 2.05%, the “^131I-I^- (%) in Blood” value [4, 7] was 92.00 ± 4.51% and the “^131I-I^- (%) in Urine” value [4, 7] was 92.02 ± 3.27%. For the same molecule, the “Biodistribution Blood” value (NG4TL4-WT tumor; 5 min) was 13.62 ± 1.19 % ID/g, the “Biodistribution Bone” value (NG4TL4-WT tumor; 5 min) was 233 ± 035 % ID/g and the “Biodistribution Kidney” value (NG4TL4-WT tumor; 5 min) was 18.81 ± 2.44 % ID/g. For the same molecule, the “Biodistribution Large Intestine” value (NG4TL4-WT tumor; 5 min) was 7.18 ± 038 % ID/g, the “Biodistribution Liver” value (NG4TL4-WT tumor; 5 min) was 15.99 ± 2.06 % ID/g and the “Biodistribution Lung” value (NG4TL4-WT tumor; 5 min) was 933 + 0.69 % ID/g. For the same molecule, the “Biodistribution Marrow” value (NG4TL4-WT tumor; 5 min) was 3.98 ± 1.44 % ID/g, the “Biodistribution Pancreas” value (NG4TL4-WT tumor; 5 min) was 6.43 ± 0.41 % ID/g and the “Biodistribution Stomach” value (NG4TL4-WT tumor; 5 min) was 7.04 ± 0.98 % ID/g. The “Biodistribution Tumor” value (NG4TL4-WT tumor; 5 min) was 635 ± 1.93 % ID/g, the “Biodistribution Blood” value (NG4TL4-WT tumor; 30 min) was 835 ± 132 % ID/g and the “Biodistribution Bone” value (NG4TL4-WT tumor; 30 min) was 2.55 ± 030 % ID/g. For the same molecule, the “Biodistribution Heart” value (NG4TL4-WT tumor; 30 min) was 3.15 ± 0.4S, the “Biodistribution Kidney” value (NG4TL4-WT tumor; 30 min) was 6.95 ± 0.77 % ID/g and the “Biodistribution Large Intestine” value (NG4TL4-WT tumor; 30 min) was 5.43 ± 0.88 % ID/g. For the same molecule, the “Biodistribution Liver” value (NG4TL4-WT tumor; 30 min) was 3.73 ± 0.57 % ID/g, the “Biodistribution Lung” value (NG4TL4-WT tumor; 30 min) was 5.80 ± 0.42 % ID/g and the “Biodistribution Marrow” value (NG4TL4-WT tumor; 30 min) was 538 ± 1.57 % ID/g. For the same molecule, the “Biodistribution Pancreas” value (NG4TL4-WT tumor; 30 min) was 5.52 ± 0.84 % ID/g, the “Biodistribution Spleen” value (NG4TL4-WT tumor; 30 min) was 6.79 ± 1.66 % ID/g and the “Biodistribution Stomach” value (NG4TL4-WT tumor; 30 min) was 24.71 ± 3.20 % ID/g. The “Biodistribution Tumor” value (NG4TL4-WT tumor; 30 min) was 6.11 ± 0.97 % ID/g, the “Biodistribution Blood” value (NG4TL4-WT tumor; 1 h) was 6.41 ± 036 % ID/g and the “Biodistribution Bone” value (NG4TL4-WT tumor; 1 h) was 1.59 ± 039 % ID/g. The “Biodistribution Heart” value (NG4TL4-WT tumor; 1 h) was 2.43 ± 0.56 % ID/g, the “Biodistribution Large Intestine” value (NG4TL4-WT tumor; 1 h) was 4.73 ± 1.16 % ID/g and the “Biodistribution Liver” value (NG4TL4-WT tumor; 1 h) was 2.68 ± 0.48 % ID/g. For the same molecule, the “Biodistribution Marrow” value (NG4TL4-WT tumor; 1 h) was 9.86 ± 4.50 % ID/g, the “Biodistribution Pancreas” value (NG4TL4-WT tumor; 1 h) was 2.84 ± 0.57 % ID/g and the “Biodistribution Small Intestine” value (NG4TL4-WT tumor; 1 h) was 6.80 ± 0.81 % ID/g. For the same molecule, the “Biodistribution Spleen” value (NG4TL4-WT tumor; 1 h) was 4.18 ± 035 % ID/g, the “Biodistribution Tumor” value (NG4TL4-WT tumor; 1 h) was 6.61 ± 033 % ID/g and the “Biodistribution Blood” value (NG4TL4-WT tumor; 2 h) was 4.19 ± 0.60 % ID/g. The “Biodistribution Bone” value (NG4TL4-WT tumor; 2 h) was 132 ± 033 % ID/g, the “Biodistribution Liver” value (NG4TL4-WT tumor; 2 h) was 1.67 ± 0.18 % ID/g and the “Biodistribution Lung” value (NG4TL4-WT tumor; 2 h) was 2.86 ± 0.55 % ID/g. For the same molecule, the “Biodistribution Marrow” value (NG4TL4-WT tumor; 2 h) was 6.88 ± 1.19 % ID/g, the “Biodistribution Muscle” value (NG4TL4-WT tumor; 2 h) was 0.93 ± 0.14 % ID/g and the “Biodistribution Pancreas” value (NG4TL4-WT tumor; 2 h) was 2.50 ± 0.58 % ID/g. The “Biodistribution Small Intestine” value (NG4TL4-WT tumor; 2 h) was 6.77 ± 1.50 % ID/g, the “Biodistribution Spleen” value (NG4TL4-WT tumor; 2 h) was 3.60 ± 0.40 % ID/g and the “Biodistribution Stomach” value (NG4TL4-WT tumor; 2 h) was 15.93 + 333 % ID/g. The “Biodistribution Tumor” value (NG4TL4-WT tumor; 2 h) was 5.63 ± 0.74 % ID/g, the “Biodistribution Blood” value (NG4TL4-WT tumor; 4 h) was 1.96 ± 0.49 % ID/g and the “Biodistribution Bone” value (NG4TL4-WT tumor; 4 h) was 0.62 ± 0.29 % ID/g. The “Biodistribution Heart” value (NG4TL4-WT tumor; 4 h) was 0.88 ± 0.46 % ID/g, the “Biodistribution Kidney” value (NG4TL4-WT tumor; 4 h) was 1.77 ± 0.71 % ID/g and the “Biodistribution Lung” value (NG4TL4-WT tumor; 4 h) was 1.60 ± 0.71 % ID/g. The “Biodistribution Marrow” value (NG4TL4-WT tumor; 4 h) was 6.63 ± 3.84 % ID/g, the “Biodistribution Muscle” value (NG4TL4-WT tumor; 4 h) was 0.53 ± 0.26 % ID/g and the “Biodistribution Pancreas” value (NG4TL4-WT tumor; 4 h) was 1.18 ± 0.56 % ID/g. For the same molecule, the “Biodistribution Small Intestine” value (NG4TL4-WT tumor; 4 h) was 4.76 ± 1.26 % ID/g, the “Biodistribution Spleen” value (NG4TL4-WT tumor; 4 h) was 1.86 ± 0.63 % ID/g and the “Biodistribution Stomach” value (NG4TL4-WT tumor; 4 h) was 4.49 ± 3.02 % ID/g. The “Biodistribution Tumor” value (NG4TL4-WT tumor; 4 h) was 3.97 ± 1.00 % ID/g, the “Biodistribution Blood” value (NG4TL4-WT tumor; 8 h) was 0.48 ± 0.23 % ID/g and the “Biodistribution Bone” value (NG4TL4-WT tumor; 8 h) was 036 ± 0.12 % ID/g. For the same molecule, the “Biodistribution Heart” value (NG4TL4-WT tumor; 8 h) was 0.19 ± 0.09 % ID/g, the “Biodistribution Kidney” value (NG4TL4-WT tumor; 8 h) was 0.56 ± 0.21 % ID/g and the “Biodistribution Large Intestine” value (NG4TL4-WT tumor; 8 h) was 1.78 ± 0.57 % ID/g. The “Biodistribution Lung” value (NG4TL4-WT tumor; 8 h) was 0.44 ± 0.21 % ID/g, the “Biodistribution Marrow” value (NG4TL4-WT tumor; 8 h) was 5.00 ± 1.59 % ID/g and the “Biodistribution Muscle” value (NG4TL4-WT tumor; 8 h) was 0.13 ± 0.03 % ID/g. For the same molecule, the “Biodistribution Small Intestine” value (NG4TL4-WT tumor; 8 h) was 3.40 ± 0.60 % ID/g, the “Biodistribution Tumor” value (NG4TL4-WT tumor; 8 h) was 2.50 ± 0.79 % ID/g and the “excretion of drug and metabolites” value (NG4TL4-WT tumor; mice) was “mainly through the urinary system”. For the same molecule, the “accumulation in organs (biodistribution and imaging)” value (NG4TL4-WT tumor; tumor-bearing mice) was “obviously accumulated in organs that rapidly proliferates”, the Cmax [5] was 18.91 ± 6.16 % ID/mL and the t1/2α [5] was 4.8 ± 1.2 min. For the same molecule, the t1/2β [5] was 2.28 ± 0.90 h, the Cmax ([5]; listed as 131I-IudR) was 18.91±6.16 % ID/mL and the t1/2α ([5]; listed as 131I-IudR) was 4.8 ± 1.2 min. The t1/2β ([5]; listed as 131I-IudR) was 2.28 ± 0.90 h.

From patent publication US20140221639A1, “RADIOLABELED NUCLEOSIDE ANALOGUE, AND PREPARATION METHOD AND USE THEREOF” (Institute of Nuclear Energy Research Atomic Energy Council, …, priority 2011, published 2014)
